This note sets out measurements from ChEMBL document CHEMBL4033775, “Natural-Products-Inspired Use of the gem-Dimethyl Group in Medicinal Chemistry” (J Med Chem, 2018).

≈ marks a conversion by molar mass, not a printed value. A value given as a limit tells only on which side of the number the result lay.

The nature of data set [1]: Clearance in po dosed rat. It is filed as ADME, organism-based. Particulars: in vivo.
Data set [2] is described as follows: Inhibition of bacterial DNA gyrase subunit B. Details: species or system Bacteria.
In data set [3] the test system is Rattus norvegicus. The experiment in a line: Anti-hypertensive activity in conscious spontaneously hypertensive Okamoto rat assessed as reduction in systolic blood pressure at 10 mg/kg, po measured up to 6 hrs post dose relative to control. It is filed as functional. Also on record: scale not given: the % may be the effect or the level left.
The test system of data set [4] is Trypanosoma brucei brucei. The experiment in a line: Antitrypanosomal activity against Trypanosoma brucei brucei after 72 hrs by resazurin-based fluorescence assay. It is filed as functional. Background: Resazurin is reduced to fluorescent resorufin, in cell work by metabolically active cells.
In data set [5] the test system is Enterococcus faecalis. The experiment in a line: Antibacterial activity against Enterococcus faecalis. It is filed as functional.
Data set [6] concerns the target 5-hydroxytryptamine receptor 2C (Homo sapiens, UniProt P28335). The experiment in a line: Agonist activity at human 5-HT2C receptor expressed in mouse NIH/3T3 cells assessed as induction of IP3 formation after 0.5 hrs. It is filed as functional, cell-based.
Data set [7] concerns the target Retinoic acid receptor RXR-beta (Homo sapiens, UniProt P28702). The experiment in a line: Agonist activity at RXRbeta (unknown origin).
In data set [8] the target is Retinoic acid receptor RXR-gamma (Homo sapiens, UniProt P48443). The experiment in a line: Agonist activity at RXRgamma (unknown origin).
For data set [9], the target named is Retinoic acid receptor alpha (Homo sapiens, UniProt P10276). The experiment in a line: Agonist activity at RARaplha (unknown origin).
In data set [10] the target is Retinoic acid receptor beta (Homo sapiens, UniProt P10826). The experiment in a line: Agonist activity at RARbeta (unknown origin).
For data set [11], the target named is Retinoic acid receptor gamma (Homo sapiens, UniProt P13631). The experiment in a line: Agonist activity at RARgamma (unknown origin).
Data set [12] concerns the target Prothrombin (Bos taurus, UniProt P00735). The experiment in a line: Inhibition of bovine plasma thrombin using chromogenix AB as substrate after 30 secs by UV-spectrophotometry.
The target in data set [13] is Insulin-like growth factor 1 receptor (Homo sapiens, UniProt P08069). The experiment in a line: Antagonist activity at human GST-tagged IGF-1R (950 to […] residues) expressed in baculovirus after 5 mins in presence of [gamma33P]-ATP by top count method.
Data set [14] has as its system Staphylococcus aureus. The experiment in a line: Antibacterial activity against methicillin-resistant Staphylococcus aureus. It is filed as functional.
In data set [15] the target is Prothrombin (Homo sapiens, UniProt P00734). The experiment in a line: Inhibition of human plasma thrombin using chromogenix AB as substrate after 30 secs by UV-spectrophotometry.
For data set [16], the target named is Integrin alpha-IIb/beta-3 (Homo sapiens, UniProt P05106+P08514). The experiment in a line: Inhibition of human GP2b/3a interaction with human fibrinogen after 3 hrs by ELISA. Type of data set: protein-complex assay.
A short description of data set [17]: Half life in Hartley guinea pig at 1 mg/kg, iv measured up to 180 mins post dose by HPLC analysis. It is filed as ADME, organism-based, Cavia porcellus. Particulars: in vivo.
Data set [18] can be described thus: Cmax in Sprague-Dawley rat at 10 mg/kg, po measured up to 120 mins post dose by HPLC analysis. It is filed as ADME, organism-based. The note with it: in vivo. Also on record: dose 10 mg/kg, route oral.
Data set [19] can be described thus: Tmax in Sprague-Dawley rat at 10 mg/kg, po measured up to 120 mins post dose by HPLC analysis. The note with it: in vivo. Type of data set: ADME, organism-based.
Data set [20] relates to 1A9. The experiment in a line: Cytotoxicity against human 1A9 cells. Type of data set: functional, cell-based.
Data set [21] has as its system Human immunodeficiency virus 1. The experiment in a line: Antiviral activity against HIV1. Type of data set: functional.
Data set [22] is filed under the species Homo sapiens. The experiment in a line: Antagonist activity at nAChR (unknown origin) relative to (+/-)-mecamylamine.
Data set [23] has as its target Sodium/hydrogen exchanger 1 (Homo sapiens, UniProt P19634). The experiment in a line: Inhibition of human NHE1 by cell based assay.
A short description of data set [24]: Half life in po dosed rat. It is filed as ADME, organism-based. Particulars: in vivo.

5-hydroxytryptamine receptor 2C, sequence (P28335 whole entry): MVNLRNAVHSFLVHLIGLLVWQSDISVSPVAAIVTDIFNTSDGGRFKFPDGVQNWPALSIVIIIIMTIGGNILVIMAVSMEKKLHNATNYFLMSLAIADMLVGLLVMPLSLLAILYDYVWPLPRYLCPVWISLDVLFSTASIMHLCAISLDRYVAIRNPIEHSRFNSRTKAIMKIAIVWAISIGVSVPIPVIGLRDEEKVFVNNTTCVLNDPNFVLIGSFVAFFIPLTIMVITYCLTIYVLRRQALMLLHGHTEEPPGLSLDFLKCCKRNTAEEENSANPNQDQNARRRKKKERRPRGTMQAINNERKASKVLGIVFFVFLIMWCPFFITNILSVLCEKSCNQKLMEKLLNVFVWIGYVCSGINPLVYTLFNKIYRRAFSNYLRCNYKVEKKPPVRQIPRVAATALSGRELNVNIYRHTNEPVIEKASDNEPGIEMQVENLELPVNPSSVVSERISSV
Retinoic acid receptor alpha, sequence (P10276 whole entry): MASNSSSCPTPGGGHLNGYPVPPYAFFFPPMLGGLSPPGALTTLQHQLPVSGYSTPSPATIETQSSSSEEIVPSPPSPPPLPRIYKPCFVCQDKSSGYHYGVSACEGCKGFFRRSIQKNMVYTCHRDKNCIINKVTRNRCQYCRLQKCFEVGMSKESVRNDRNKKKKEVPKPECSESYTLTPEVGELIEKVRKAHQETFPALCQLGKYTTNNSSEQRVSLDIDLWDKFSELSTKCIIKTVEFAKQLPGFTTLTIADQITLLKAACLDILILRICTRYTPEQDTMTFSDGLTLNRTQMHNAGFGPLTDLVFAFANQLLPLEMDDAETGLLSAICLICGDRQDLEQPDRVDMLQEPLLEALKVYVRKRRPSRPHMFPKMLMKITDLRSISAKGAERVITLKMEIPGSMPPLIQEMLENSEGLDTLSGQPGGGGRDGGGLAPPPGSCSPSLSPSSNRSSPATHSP
Retinoic acid receptor beta, sequence (P10826 whole entry): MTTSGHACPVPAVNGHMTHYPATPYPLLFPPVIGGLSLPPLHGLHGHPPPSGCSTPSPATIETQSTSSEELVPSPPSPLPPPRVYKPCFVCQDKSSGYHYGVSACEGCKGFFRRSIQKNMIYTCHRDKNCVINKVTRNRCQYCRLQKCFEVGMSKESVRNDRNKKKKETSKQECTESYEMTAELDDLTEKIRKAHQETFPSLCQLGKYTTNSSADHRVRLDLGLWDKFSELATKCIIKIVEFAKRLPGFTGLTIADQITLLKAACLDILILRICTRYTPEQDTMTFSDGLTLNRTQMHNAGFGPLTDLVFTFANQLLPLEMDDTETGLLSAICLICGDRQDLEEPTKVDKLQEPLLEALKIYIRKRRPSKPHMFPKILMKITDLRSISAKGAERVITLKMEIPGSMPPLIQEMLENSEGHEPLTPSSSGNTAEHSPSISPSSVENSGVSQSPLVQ
Retinoic acid receptor RXR-beta, sequence (P28702 whole entry): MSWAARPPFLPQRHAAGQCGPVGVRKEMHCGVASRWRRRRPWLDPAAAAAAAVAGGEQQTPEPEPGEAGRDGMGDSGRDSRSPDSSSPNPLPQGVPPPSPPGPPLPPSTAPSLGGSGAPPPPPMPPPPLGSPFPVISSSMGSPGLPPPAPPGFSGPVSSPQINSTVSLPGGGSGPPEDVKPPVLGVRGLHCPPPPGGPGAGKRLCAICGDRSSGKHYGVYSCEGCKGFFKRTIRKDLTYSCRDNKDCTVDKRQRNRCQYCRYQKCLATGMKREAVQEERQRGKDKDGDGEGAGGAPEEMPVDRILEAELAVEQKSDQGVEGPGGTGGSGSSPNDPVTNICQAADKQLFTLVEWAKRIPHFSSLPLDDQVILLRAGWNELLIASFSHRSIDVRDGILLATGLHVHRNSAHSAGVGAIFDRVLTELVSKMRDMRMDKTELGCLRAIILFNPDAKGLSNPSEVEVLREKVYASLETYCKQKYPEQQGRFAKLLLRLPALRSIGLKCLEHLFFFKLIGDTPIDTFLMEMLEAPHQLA
Integrin alpha-IIb/beta-3, sequence (P05106 27-788 limits assumed): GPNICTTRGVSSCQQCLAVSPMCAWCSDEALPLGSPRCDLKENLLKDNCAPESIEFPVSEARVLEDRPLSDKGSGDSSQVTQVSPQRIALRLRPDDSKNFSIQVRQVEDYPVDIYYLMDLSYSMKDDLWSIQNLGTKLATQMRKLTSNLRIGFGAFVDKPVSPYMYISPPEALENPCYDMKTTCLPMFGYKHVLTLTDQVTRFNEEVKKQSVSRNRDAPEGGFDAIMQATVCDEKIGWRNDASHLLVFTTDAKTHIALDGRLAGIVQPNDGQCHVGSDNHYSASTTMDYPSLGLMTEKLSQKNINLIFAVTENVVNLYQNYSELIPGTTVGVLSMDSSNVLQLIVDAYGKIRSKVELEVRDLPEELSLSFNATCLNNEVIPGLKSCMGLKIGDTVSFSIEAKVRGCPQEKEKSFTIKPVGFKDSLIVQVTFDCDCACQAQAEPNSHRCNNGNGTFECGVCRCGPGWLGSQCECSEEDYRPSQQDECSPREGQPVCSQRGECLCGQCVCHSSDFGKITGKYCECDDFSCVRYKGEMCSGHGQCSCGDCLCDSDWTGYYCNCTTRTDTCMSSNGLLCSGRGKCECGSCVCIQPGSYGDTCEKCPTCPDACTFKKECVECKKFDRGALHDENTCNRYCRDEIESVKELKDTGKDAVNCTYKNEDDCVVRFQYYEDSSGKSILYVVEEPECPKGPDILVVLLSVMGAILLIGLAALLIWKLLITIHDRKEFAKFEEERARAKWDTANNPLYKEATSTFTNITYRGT
Integrin alpha-IIb/beta-3, sequence (P08514 32-887 limits assumed): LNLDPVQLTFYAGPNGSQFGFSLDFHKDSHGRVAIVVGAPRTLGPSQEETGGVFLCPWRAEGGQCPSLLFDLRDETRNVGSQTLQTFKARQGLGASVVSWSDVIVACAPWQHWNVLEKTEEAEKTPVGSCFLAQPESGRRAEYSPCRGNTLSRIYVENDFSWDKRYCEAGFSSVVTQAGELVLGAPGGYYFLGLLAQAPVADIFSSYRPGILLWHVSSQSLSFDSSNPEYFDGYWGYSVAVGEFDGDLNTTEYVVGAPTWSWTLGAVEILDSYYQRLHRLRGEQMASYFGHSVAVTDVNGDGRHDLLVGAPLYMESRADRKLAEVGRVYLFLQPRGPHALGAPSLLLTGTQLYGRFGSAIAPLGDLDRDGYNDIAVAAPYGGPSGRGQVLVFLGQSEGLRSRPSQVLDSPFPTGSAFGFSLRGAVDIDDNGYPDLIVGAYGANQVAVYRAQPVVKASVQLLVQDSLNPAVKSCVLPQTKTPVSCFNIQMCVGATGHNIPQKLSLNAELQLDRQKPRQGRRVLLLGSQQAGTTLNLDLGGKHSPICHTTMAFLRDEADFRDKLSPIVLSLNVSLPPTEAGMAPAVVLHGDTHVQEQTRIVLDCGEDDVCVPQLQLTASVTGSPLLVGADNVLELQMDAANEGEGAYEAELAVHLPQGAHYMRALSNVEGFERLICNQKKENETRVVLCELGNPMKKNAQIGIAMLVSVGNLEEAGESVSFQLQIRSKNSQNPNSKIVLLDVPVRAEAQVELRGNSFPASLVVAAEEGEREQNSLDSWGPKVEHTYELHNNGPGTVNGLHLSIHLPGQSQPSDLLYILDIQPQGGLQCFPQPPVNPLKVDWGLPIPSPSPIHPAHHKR
Integrin alpha-IIb/beta-3, sequence (P08514 891-1039 limits assumed): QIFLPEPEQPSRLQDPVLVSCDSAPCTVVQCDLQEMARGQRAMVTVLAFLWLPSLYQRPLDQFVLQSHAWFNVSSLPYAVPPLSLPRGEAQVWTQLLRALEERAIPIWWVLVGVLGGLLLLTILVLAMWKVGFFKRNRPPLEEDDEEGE
Retinoic acid receptor gamma, sequence (P13631 whole entry): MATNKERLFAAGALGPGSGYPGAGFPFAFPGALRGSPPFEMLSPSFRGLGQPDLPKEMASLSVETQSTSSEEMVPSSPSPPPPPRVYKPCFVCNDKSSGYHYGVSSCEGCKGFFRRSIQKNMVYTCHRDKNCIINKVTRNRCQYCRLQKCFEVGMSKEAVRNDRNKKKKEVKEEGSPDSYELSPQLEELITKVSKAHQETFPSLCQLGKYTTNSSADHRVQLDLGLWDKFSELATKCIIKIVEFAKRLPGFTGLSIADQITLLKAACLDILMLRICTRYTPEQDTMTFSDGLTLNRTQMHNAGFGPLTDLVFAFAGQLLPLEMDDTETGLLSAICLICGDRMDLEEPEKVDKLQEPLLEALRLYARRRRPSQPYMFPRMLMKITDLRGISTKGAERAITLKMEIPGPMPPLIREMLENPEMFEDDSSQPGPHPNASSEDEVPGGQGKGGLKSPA
Sodium/hydrogen exchanger 1, sequence (P19634 whole entry): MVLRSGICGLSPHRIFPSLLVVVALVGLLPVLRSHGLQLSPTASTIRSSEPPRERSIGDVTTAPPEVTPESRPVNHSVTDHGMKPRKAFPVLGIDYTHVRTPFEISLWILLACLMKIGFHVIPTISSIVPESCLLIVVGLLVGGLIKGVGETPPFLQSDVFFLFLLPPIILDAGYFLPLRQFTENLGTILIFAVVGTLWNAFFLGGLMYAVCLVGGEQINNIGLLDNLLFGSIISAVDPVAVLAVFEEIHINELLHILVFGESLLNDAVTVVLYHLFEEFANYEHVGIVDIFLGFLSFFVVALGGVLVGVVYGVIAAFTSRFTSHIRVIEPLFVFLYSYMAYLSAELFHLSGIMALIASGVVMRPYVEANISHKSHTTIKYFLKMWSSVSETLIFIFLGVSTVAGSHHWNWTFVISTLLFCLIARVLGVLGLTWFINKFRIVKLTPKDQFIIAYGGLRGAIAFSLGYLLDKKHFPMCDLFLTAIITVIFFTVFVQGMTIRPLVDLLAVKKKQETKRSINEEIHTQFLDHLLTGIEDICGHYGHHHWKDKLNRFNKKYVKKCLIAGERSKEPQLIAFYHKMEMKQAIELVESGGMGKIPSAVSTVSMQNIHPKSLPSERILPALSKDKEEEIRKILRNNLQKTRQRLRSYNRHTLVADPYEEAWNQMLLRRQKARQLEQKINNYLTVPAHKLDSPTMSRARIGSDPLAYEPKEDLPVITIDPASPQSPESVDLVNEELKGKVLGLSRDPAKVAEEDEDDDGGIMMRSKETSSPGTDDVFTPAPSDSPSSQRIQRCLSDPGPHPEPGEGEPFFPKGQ

The term CL/F denotes clearance divided by bioavailability, as obtained after extravascular dosing. `N=C(N)NC(=O)[C@H]1C[C@@H]1c1cccc2c1CCO2` gave a CL/F in [1] of 120 mL/min/kg.

By IC50 is commonly meant the concentration that gives 50% inhibition. With `CO[C@@H]1[C@@H](OC(N)=O)[C@@H](O)[C@H](Oc2ccc3c(O)c(NC(=O)c4ccc(O)c(CC=C(C)C)c4)c(=O)oc3c2C)OC1(C)C` [NOVOBIOCIN], the IC50 in data set [2] turned out to be 80 nM.

`O=C1CCCN1[C@@H]1c2cc([N+](=O)[O-])ccc2OC[C@H]1O`: the Activity in data set [3] amounted to 5%.

Turning to `O=C(Nc1ccc2c(c1)B(O)OC2)c1ccc(F)cc1C(F)(F)F`, the IC50 in [4] was 180 nM.

The term MIC denotes the smallest concentration in the dilution series that meets the test's criterion for growth inhibition. As to `CC1=C[C@@H]2[C@@H]([C@@H]3[C@H]1\C=C/C=C/C=C\[C@@H](O)[C@H](C)[C@H](O)C/C=C(C)/C=C/C(=O)O[C@H]3c1ccc(O)cc1)C(C)(C)C[C@@]2(C)O`, in data set [5], it took 0.3 µg/mL (≈ 0.51 µM) to inhibit growth (MIC).

By Ki is commonly meant a measure of affinity in units of concentration, obtained from inhibition or displacement. Consider `COc1ccc2c(c1)-c1c(cnn1C[C@H](C)N)C2`, for which the inhibition constant Ki in data set [6] was 2.51 nM.

Usually EC50 stands for the concentration at which the effect is half-maximal. For the molecule `C=C(c1ccc(C(=O)O)cc1)c1cc2c(cc1C)C(C)(C)CCC2`, the EC50 in data set [7] was 770 nM; in [8], 600 nM; in [9] it was more than 10000 nM; in data set [10], more than 10000 nM; in data set [11], more than 10000 nM.

For the molecule `C[C@H]1CNc2c(cccc2S(=O)(=O)N[C@@H](CCCNC(=N)N)C(=O)N2CCC(CCO)CC2)C1`, the affinity in data set [12], expressed as Ki, was 50 nM.

Turning to `CC(C)(Oc1cccc(-c2cn([C@H]3C[C@@H](CN4CCC4)C3)c3ncnc(N)c23)c1)[C@@H]1CCCO1`, the IC50 in data set [13] worked out at 10 nM.

In the case of `Cc1cc(O)cc(O)c1-c1cc(O)cc2cc3c(c(O)c12)C(=O)c1c(O)cc(O)c(Cl)c1C3(C)C`, the results for the MIC in [5] and in data set [14] were 0.8 µg/mL (≈ 1.62 µM) and 3.1 µg/mL (≈ 6.29 µM), respectively.

As to `CC1(C)CNc2c(cccc2S(=O)(=O)N[C@@H](CCCNC(=N)N)C(=O)N2CCC(CCO)CC2)C1`, the Ki is 30 nM in data set [15] and 50 nM in data set [12].

In the case of `N=C(N)NCCC[C@H](NS(=O)(=O)c1cccc2c1NCCC2)C(=O)N1CCC(CCO)CC1`, in [12], the Ki is 500 nM.

As usually defined, the half-life is how long it takes for the measured level to halve. In general, Cmax refers to the highest concentration seen after dosing. As usually defined, the Tmax is the time at which the peak concentration occurs. Regarding `CCOC(=O)CC1CCN(C(=O)CC(CC)NC(=O)c2ccc(C(=N)N3CCSC3)cc2F)CC1` (racemic), in [16], the IC50 amounted to 2.3 nM. The molecule also displayed a half-life in [17] of 1.83 h. The same molecule came in with a Cmax in [18] of 1210 ng/mL. Moreover, in data set [19], the Tmax was 0.5 h.

As to `CC(=O)O[C@H]1C(=O)[C@@]2(C)[C@H]([C@H](OC(=O)c3ccccc3)[C@]3(O)C[C@H](OC(=O)[C@H](O)[C@@H](NC(=O)c4ccccc4)c4ccccc4)C(C)=C1C3(C)C)[C@]1(OC(C)=O)CO[C@@H]1C[C@@H]2O` [PACLITAXEL], it took 3.71 nM to reach half-maximal inhibition in data set [20] (IC50).

In the case of `CCCc1cc(=O)oc2c3c(c4c(c12)OC(C)(C)C=C4)O[C@H](C)[C@@H](C)[C@@H]3O` [CALANOLIDE A], the EC50 in [21] came out at 2.85 nM.

`CN[C@@]1(C)[C@H]2CC[C@@H](C2)C1(C)C` came in with a fold change (FC) in [22] of 3.

The molecule `C/C(=C\c1csc(C)n1)[C@@H]1C[C@@H]2O[C@]2(C)CCC[C@H](C)[C@H](O)[C@@H](C)C(=O)C(C)(C)[C@@H](O)CC(=O)O1` [PATUPILONE] showed an IC50 in data set [20] of 0.06 nM.

Molecule `CC(=O)O[C@@]12CO[C@@H]1C[C@H](O)[C@@]1(C)C(=O)[C@H](O)C3=C(C)[C@@H](OC(=O)[C@H](O)[C@@H](NC(=O)OC(C)(C)C)c4ccccc4)C[C@@](O)([C@@H](OC(=O)c4ccccc4)[C@H]21)C3(C)C` [DOCETAXEL ANHYDROUS] gave an IC50 in data set [20] of 3.55 nM.

In data set [23], `CC1(C)[C@H](C(=O)N=C(N)N)[C@H]1c1cccc2c1CCO2` registered an IC50 of 10 nM. Also, the CL/F in [1] is 74 mL/min/kg. Besides, the half-life in data set [24] was 3 h.
